Consider three compounds from ChEMBL document CHEMBL3994638, “The juxtamembrane region of TrkA kinase is critical for inhibitor selectivity” (Bioorg Med Chem Lett, 2017).

For orientation: IC50 means the concentration needed to halve the response being measured.

SMILES strings stand for the structures.

Assay [1] concerns the target BDNF/NT-3 growth factors receptor (Homo sapiens, UniProt Q16620). Kind of assay: Inhibition of recombinant human TrkB expressed in DHFR deficient CHO cells assessed as inhibition of human brain-derived neurotrophic factor-induced calcium influx by Fluo-4 AM dye based assay. The format is cell-based.
For assay [2], the target named is T1, High affinity nerve growth factor receptor (Homo sapiens, UniProt P04629). Briefly: Inhibition of recombinant human TrkA expressed in DHFR deficient CHO cells assessed as inhibition of human beta-nerve growth factor-induced calcium influx by Fluo-4 AM dye based assay. The format is cell-based.
Assay [3] deals with NT-3 growth factor receptor (Homo sapiens, UniProt Q16288). Kind of assay: Inhibition of recombinant human TrkC expressed in DHFR deficient CHO cells assessed as inhibition of human neurotrophin-3-induced calcium influx by Fluo-4 AM dye based assay. In kind it is cell-based.
Assay [4] has as its target T1, High affinity nerve growth factor receptor. Kind of assay: Inhibition of juxtamembrane region containing recombinant human N-terminal His6-tagged/GST-tagged TrkA (473 to 796 residues) expressed in baculovirus infected Hi5 cells using TK substrate after 60 mins by HTRF assay. (In TR-FRET formats the signal depends on donor and acceptor labels being close together.)

Assay [5] shares this target. Kind of assay: Inhibition of juxtamembrane region deficient recombinant human N-terminal His6-tagged/GST-tagged TrkA (498 to 796 residues) expressed in baculovirus infected Hi5 cells using TK substrate after 60 mins by HTRF assay.

T1 sequence (P04629 whole entry): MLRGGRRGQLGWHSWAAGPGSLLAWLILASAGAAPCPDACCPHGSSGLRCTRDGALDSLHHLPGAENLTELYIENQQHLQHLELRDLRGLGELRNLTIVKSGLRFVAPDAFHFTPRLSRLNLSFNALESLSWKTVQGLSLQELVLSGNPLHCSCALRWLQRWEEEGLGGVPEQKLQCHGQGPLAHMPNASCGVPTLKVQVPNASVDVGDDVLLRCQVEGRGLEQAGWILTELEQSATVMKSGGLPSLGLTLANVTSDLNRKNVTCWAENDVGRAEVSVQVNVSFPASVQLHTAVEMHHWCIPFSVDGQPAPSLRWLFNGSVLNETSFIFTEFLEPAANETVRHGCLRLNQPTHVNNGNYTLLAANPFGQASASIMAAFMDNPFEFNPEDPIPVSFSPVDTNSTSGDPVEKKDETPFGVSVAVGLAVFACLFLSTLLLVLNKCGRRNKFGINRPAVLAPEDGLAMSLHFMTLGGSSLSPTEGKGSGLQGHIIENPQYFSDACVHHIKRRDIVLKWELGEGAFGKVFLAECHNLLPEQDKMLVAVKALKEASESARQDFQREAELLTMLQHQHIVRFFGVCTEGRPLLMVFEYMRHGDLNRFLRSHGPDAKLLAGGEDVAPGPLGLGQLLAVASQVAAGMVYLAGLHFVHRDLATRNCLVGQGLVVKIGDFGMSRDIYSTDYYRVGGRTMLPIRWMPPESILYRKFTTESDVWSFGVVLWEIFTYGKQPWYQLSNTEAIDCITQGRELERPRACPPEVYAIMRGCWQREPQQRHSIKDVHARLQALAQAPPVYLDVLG
Sequence of BDNF/NT-3 growth factors receptor (Q16620 whole entry): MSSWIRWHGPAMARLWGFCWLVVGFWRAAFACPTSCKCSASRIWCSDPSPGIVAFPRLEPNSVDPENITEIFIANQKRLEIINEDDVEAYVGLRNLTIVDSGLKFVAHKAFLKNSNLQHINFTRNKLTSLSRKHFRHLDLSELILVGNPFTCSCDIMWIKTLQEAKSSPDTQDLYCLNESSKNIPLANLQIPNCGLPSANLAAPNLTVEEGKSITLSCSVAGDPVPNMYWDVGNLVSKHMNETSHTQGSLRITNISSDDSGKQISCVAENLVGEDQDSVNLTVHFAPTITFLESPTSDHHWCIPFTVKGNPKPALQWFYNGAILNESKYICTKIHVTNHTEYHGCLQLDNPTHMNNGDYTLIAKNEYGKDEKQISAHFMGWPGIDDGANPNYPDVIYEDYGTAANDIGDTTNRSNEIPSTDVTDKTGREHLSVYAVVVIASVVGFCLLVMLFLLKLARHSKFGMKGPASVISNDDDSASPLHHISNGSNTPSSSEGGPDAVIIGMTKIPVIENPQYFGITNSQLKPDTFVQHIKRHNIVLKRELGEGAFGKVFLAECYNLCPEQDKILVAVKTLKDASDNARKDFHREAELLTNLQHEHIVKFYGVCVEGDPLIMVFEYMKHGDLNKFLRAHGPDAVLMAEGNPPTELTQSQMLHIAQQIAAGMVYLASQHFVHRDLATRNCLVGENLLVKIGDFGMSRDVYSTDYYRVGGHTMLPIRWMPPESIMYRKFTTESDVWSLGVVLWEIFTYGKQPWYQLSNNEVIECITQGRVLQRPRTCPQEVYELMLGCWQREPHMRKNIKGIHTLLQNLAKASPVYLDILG
Sequence of NT-3 growth factor receptor (Q16288 whole entry, the tested form may be a part): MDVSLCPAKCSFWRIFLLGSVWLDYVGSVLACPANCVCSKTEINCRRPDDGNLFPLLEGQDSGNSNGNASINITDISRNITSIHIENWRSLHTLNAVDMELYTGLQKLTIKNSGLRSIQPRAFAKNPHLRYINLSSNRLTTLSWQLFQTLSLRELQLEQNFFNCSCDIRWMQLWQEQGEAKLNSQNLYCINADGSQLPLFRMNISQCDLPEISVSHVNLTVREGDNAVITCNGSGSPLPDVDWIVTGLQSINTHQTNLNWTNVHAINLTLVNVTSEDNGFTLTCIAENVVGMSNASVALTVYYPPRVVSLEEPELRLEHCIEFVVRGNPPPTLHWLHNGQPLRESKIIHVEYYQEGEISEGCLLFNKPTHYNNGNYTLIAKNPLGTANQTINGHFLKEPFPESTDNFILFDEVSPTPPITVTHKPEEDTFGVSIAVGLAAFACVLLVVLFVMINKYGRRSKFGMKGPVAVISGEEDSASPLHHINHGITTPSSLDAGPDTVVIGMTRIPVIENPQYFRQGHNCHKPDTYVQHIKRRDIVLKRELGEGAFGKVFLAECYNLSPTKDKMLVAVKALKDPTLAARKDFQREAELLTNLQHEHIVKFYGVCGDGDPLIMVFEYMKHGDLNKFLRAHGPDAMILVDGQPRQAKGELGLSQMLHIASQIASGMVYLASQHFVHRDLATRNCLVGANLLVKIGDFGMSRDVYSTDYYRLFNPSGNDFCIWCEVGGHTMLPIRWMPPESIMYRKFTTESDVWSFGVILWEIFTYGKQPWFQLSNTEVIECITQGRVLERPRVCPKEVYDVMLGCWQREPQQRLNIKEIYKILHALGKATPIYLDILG

Consider `COc1cc(-c2cn(CC(=O)Nc3cc(C4CC4)nn3-c3ccccc3)nn2)ccc1-n1cnc(C)c1`, for which the IC50 in assay [1] was 132 nM.

On to `CCOc1nn(-c2ccccc2)c(NC(=O)N[C@@H]2CN(CCOC)C[C@H]2c2ccc(F)c(F)c2)c1C`, for which the IC50 was determined as 1300 nM in assay [1]; 2.7 nM in assay [2]; 2480 nM in assay [3]; 6 nM in assay [4]; 37.2 µM in assay [5].

With `CC(C)Oc1cc(Nc2nc(N[C@@H](C)c3ccc(F)cn3)ncc2Cl)n[nH]1`, the IC50 in assay [1] is 6.8 nM; in assay [3], 7.2 nM.
